Assay results published in patent US12085575B2, “Compositions and methods for detecting proteinopathies” (BOARD OF SUPERVISORS OF LOUISIANA STATE UNIVERSITY AND …, priority 2011, dated 2024).
Residues, ends and D or L forms follow the SMILES beside them. *: point of attachment. Cbz = O=C(OCc1ccccc1)*

Tests used:
LC3 and p62 = assay: UV-induced degradation of autophagy substrates LC3 and p62 (Western blot); type: cell-based, human
Protocol: Immunoblotting and immunofluorescence analysis: Immunoblotting analysis of proteins in cultured cells: Cells ([…]) were cultured in 35 mm tissue culture plates. After various experimental treatments, cells were lysed using an SDS-PAGE sample buffer. Cell lysates were then analyzed by SDS-PAGE (10% for p62 or 15% for LC3 and polyubiquitin conjugates) and immunoblotting analysis using either anti-ISG15 (raised against human ISG15 (23)), anti-ubiquitin (Sigma-Aldrich), anti-HA (gift from Dr. Walworth at Robert Wood Johnson Medical School/University of Medicine and Dentistry of New Jersey; Piscataway, NJ)), anti-LC3 (MBL International Corporation; Woburn, MA), or p62 (Sigma-Aldrich) antibodies, as indicated, using the ECL Western procedure (Pierce) and the BioRad VersaDoc Imaging System.
Because degradation of proteasome substrates is deregulated in A-T cells, the degradation of the autophagy substrates (autophagic flux) LC3 and p62 was assessed in UV-exposed A-T and ATM+ cells (55). For FIGS. 10A-10D, A-T and ATM+ cells were treated with Bafl (1 nM for 18 h) and then exposed to UV as indicated (25 mJ/m2). Three hours after recovery in the presence of inhibitors, cells were lysed. Cell lysates were analyzed by Western blotting for LC3 (FIG. 10A), p62 […], and actin (lower panels in FIGS. 10A and 10C) using their specific antibodies. Intensity of the total LC3 (LC3-I+II) and p62 proteins was quantitated using BioRad Quantity One software, and the results shown in FIGS. 10B and 10D, respectively. […] show average values (±SEM) of % degradation of LC3 and p62 from three independent experiments. All control values (−UV and +Bafl) are normalized to 100%, and values for experimental treatments were expressed as percent variations over control
UV induces aberrant degradation of autophagy substrate LC3 in A-T cells and brain slices. In FIG. 19A, LC3 degradation in UV-treated A-T cells is shown. […] Intensities of the total LC3 bands were quantitated using BioRad Quantity One software.

[1] = system: HA-polyubiquitylated proteins; assay: UV-induced degradation of HA-polyubiquitylated proteins (anti-HA Western blot); type: cell-based, human; conditions: for UV-induced degradation of HA-Lys48-linked polyubiquitylated proteins: HA-Lys48 only ubiquitin construct; for UV-induced decrease of HA-polyubiquitylated proteins: MG132 1 μM or Bafl 1 nM 18 h, 3 h recovery; for UV-induced decrease of HA-polyubiquitylated proteins / UV-induced degradation of HA-polyubiquitylated proteins: UV 25 mJ/m2; for UV-induced degradation of HA-polyubiquitylated proteins: MG132 1 nm or 3-MA 10 nm for 18 h
Protocol: Immunoblotting Analysis of HA-ubiquitin conjugated proteins in cells exposed to UV radiation. Cells ([…]) were transfected with a hemagglutinin (HA)-ubiquitin plasmid using the PolyFect transfection reagent (Qiagen; Valencia, CA) as described (24). Twenty-four h after transfection, cells were treated with either proteasome inhibitor MG132 (1 μM) (Boston Biochemicals; Cambridge, MA) or autophagy inhibitor Bafilomycin A1 (Bafl) (1 nM) (Sigma-Aldrich) or 3-Methyladenine (3-MA) (100 nM) for 18 h. Cells were exposed to UV radiation (25 mJoules, using BioRad GS Gene Linker™ UV Chamber) and/or left untreated. Cells were then allowed to recover in the presence of inhibitors for 3 hr. Cell lysis, SDS-PAGE, and immunoblotting analysis to detect HA-ubiquitin conjugated proteins using anti-HA antibodies was carried out as described herein.
Decrease in the steady state levels of polyubiquitylated proteins could be due to their increased deubiquitylation or increased degradation via the 26S proteasome. Also, the ubiquitin antibody used in the experiment herein is known to cross-react with free ISG15/UCRP (44), and ISG15 protein is elevated in A-T cells (20). An HA-ubiquitin construct was transfected and then the steady state levels of the HA-polyubiquitylated proteins was assessed (to rule out the possibility of protein polyubiquitylation versus protein polyISGlyation), in the absence or presence of the proteasome inhibitor MG132 (to rule out the possibility of protein deubiquitylation versus protein degradation), in UV treated A-T and ATM+ cells. In FIG. 8B, A-T and ATM+ cells were transfected with a HA-ubiquitin construct. Cells were then treated with MG132 (1 μM) or Bafl (1 nM) for 18 hours and exposed to UV radiation (25 mJ/m2). After recovery in the presence of inhibitors for an additional three hours, cells were lysed. Cell extracts were analyzed by Western blotting for HA-polyubiquitylated proteins and actin using anti-HA and anti-actin antibodies respectively. Intensity of the total HA-polyubiquitylated proteins was quantitated using BioRad Quantity One software and results shown in FIG. 8C.
To complement the results shown in FIG. 8B, another construct was used that expresses HA-ubiquitin and that can preferentially make polyubiquitin chains linked through Lys48 on the substrates (20). In FIG. 8D, A-T and ATM+ cells were transfected with HA-Lys48 only ubiquitin construct. The inhibitor and UV treatments, cell lysis, SDS-PAGE, and immunoblotting analysis to detect HA-ubiquitin conjugated proteins using anti-HA antibodies was carried out as described herein. The experiment was repeated two times with the reproducible results. Similar results were obtained using this distinct HA-ubiquitin construct (FIG. 8D) as obtained herein (FIG. 8B); UV induced MG132- and Bafilomycin-resistant degradation of HA-Lys48-linked polyubiquitylated proteins in A-T cells, but not in ATM+ cells.
For FIG. 14A, HA-ubiquitin-transfected A-T/LV-control shRNA cells were exposed to UV (25 mJ/m2). After three hours of recovery, assessment of HA-polyubiquitylated proteins was carried out as described herein for FIG. 8B. In FIG. 14B, HA-ubiquitin-transfected A-T/LV-control shRNA cells were treated with Bafl (1 nm for 18 h). Cells were then exposed to UV (25 mJ/m2). After three hours of recovery in the presence of the inhibitor, assessment of HA-polyubiquitylated proteins was carried out as described for FIG. 14A. For FIG. 14C, HA-ubiquitin-transfected A-T/LV-control shRNA cells were treated with MG132 (1 nm for 18 h). Cells were then exposed to UV (25 mJ/m2). After three hours of recovery in the presence of the inhibitor, assessment of HA-polyubiquitylated proteins was carried out as described for FIG. 14A. For FIG. 14D, HA-ubiquitin-transfected A-T/LV-control shRNA cells were treated with 3-MA (10 nm for 18 h). Cells were then exposed to UV (25 mJ/m2). […]

SMILES	UV-mediated degradation of LC3 and p62 (LC3 and p62; A-T cells, Bafl 1 nM 18 h, UV 25 mJ/m2)	LC3 and p62 levels (LC3 and p62; ATM+ cells treated with UV in the absence or presence of Bafl)	UV-induced autophagic flux (LC3 degradation) (LC3 and p62; ATM+ cells, Bafilomycin A1 1 nM 18 h, UV 25 mJ)	UV-induced degradation of HA-Lys48-linked polyubiquitylated proteins ([1]; A-T cells)	UV-induced decrease of HA-polyubiquitylated proteins ([1]; A-T cells)	UV-induced decrease of HA-polyubiquitylated proteins ([1]; ATM+ cells)	UV-induced degradation of HA-polyubiquitylated proteins ([1]; A-T/LV-ISG15 shRNA (ISG15-silenced) cells)	UV-induced degradation of HA-polyubiquitylated proteins ([1]; A-T/LV-control shRNA cells)
CO/C1=C\C(C)=C\[C@@H](C)[C@@H](O)[C@@H](C)C/C(C)=C/C=C/[C@H](OC)[C@@H]([C@@H](C)[C@@H](O)[C@H](C)[C@@]2(O)C[C@@H](O)[C@H](C)[C@@H](C(C)C)O2)OC1=O [Bafilomycin A1]	failed to protect	no apparent changes	protected	resistant	failed to block	significantly blocked	–	–
CC(C)C[C@@H](C=O)NC(=O)[C@H](CC(C)C)NC(=O)[C@H](CC(C)C)NC(=O)OCc1ccccc1 [MG132] (Cbz-Leu-Leu-Leu-aldehyde)	–	–	–	resistant	failed to protect	completely blocked	completely block	failed to block
